In brackets after ≈: the same amount, converted by molar mass. Blank lines part the entries; values can stand above or below the compound they belong to.
How the values were obtained:
Type in all cases: physicochemical
[1] = Aqueous solubility at pH 6.6
[2] = Aqueous solubility at pH 7
[3] = Aqueous solubility was determined; conditions: buffer

solubility [1]: > 0.03 mg/mL
Compound: C[C@@H](c1nc(-c2ccc(C#N)cc2)cs1)[C@](O)(Cn1c[n+](COP(=O)([O-])O)cn1)c1ccc(F)cc1F

solubility [2]: > 0.03 mg/mL
Compound: C[C@@H](c1nc(-c2ccc(C#N)cc2)cs1)[C@@](Cn1cncn1)(OCOP(=O)(O)O)c1ccc(F)cc1F [FOSRAVUCONAZOLE]

solubility [3]: 0.0006 mg/mL (≈ 1.37 µM)
Compound: C[C@@H](c1nc(-c2ccc(C#N)cc2)cs1)[C@](O)(Cn1cncn1)c1ccc(F)cc1F [RAVUCONAZOLE]

— ChEMBL document CHEMBL1145879, “Phosphonooxymethyl prodrugs of the broad spectrum antifungal azole, ravuconazole: synthesis and biological properties” (Bioorg Med Chem Lett, 2003)
